Source: patent US7868026B2, “Therapeutic compounds” (Pfizer Inc., priority 2005, dated 2011)
Like-named read-outs stand apart in the source and are kept apart here.

Assays:
Format in all cases: biochemical
CYP3A4 [1] = target: T1, CYP3A4 (Homo sapiens, UniProt P08684); assay: Determination of compound Kiapp against recombinant CYP3A4 enzyme (BFC fluorescent substrate)
How it was run: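 Kiapp derived from initial velocities over the first 5 min of BFC (5 uM) oxidation, using Morrison's tight-binding equation for non-partial and Szedlacsek's for partial inhibitors. Inhibitor first pre-incubated ≥30 min with CYP3A4 (5.5 or 8 nM, ±b5) in pH 7.0 phosphate/TCEP/2% DMF at room temperature; 200 uM NADPH initiated.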

CYP3A4 [2] = target: T1, CYP3A4; assay: Determination of IC50 against CYP3A4 by measurement of inhibition of testosterone metabolism (human liver microsomes, 6-β-OH-testosterone by LC-MS/MS); design: 0.1 mg/mL human liver microsomes; settings: read-out: IC50 (Testo.)
Description: 2. Determination of IC50 Against CYP3A4 by Measurement of Inhibition of Testosterone Metabolism
This assay was performed using a standard 96 well plate design. […] The incubation substrate mix contains 25 μM testosterone, 0.1 mg/mL human liver microsomes, 1 mM NADPH, and potassium phosphate buffer (100 mM, pH 7.4). Quantitation of metabolite peak area ratio against an internal standard is determined by LC-MS/MS analysis. The production of 6-β-OH-testosterone from testosterone metabolism is determined after incubation for eight minutes by comparison to a standard curve generated for the metabolite
Samples were analyzed in the MRM mode using a Sciex API 3000 mass spectrometer (Applied Biosystems, Foster City, Calif.) with a Paradigm MS4 binary pump (Michrom BioResources Inc., Auburn, Calif.) and a LEAP CTC PAL autosampler (LEAP Technologies, Carrboro, N.C.). A Phenomenex Synergi, 4μ, Polar-RP, 10×2.0 mm column (Phenomenex, Torrance, Calif.) was used for separation with a mobile phase composition of: 0.1% formic acid in water (A) and: 0.1% formic acid in methanol (B). The following gradient was used: […]
The sample injection volume was 10 μL and flow was split post-column with 0.4 mL/min going to the mass spectrometer. Analysis was performed using the following API 3000 mass spectrometer settings: […]

CYP3A4 [3] = target: T1, CYP3A4; assay: Determination of IC50 against CYP3A4 by measurement of inhibition of midazolam metabolism (human liver microsomes, 1-hydroxymidazolam by LC-MS/MS); design: 0.1 mg/mL human liver microsomes; settings: 2 μM midazolam, 0.1 mg/mL human liver microsomes
How it was run: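 Human liver microsomes (0.1 mg/mL) incubated 8 min with 2 μM midazolam and 1 mM NADPH in 100 mM potassium phosphate, pH 7.4. 1-Hydroxymidazolam quantified by LC-MS/MS (MRM) as peak area ratio to internal standard against a metabolite standard curve.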

[4] = Baculo. enzyme preparation, read-out: Kiapp (BFC, Baculo.)
[5] = Super. enzyme preparation, read-out: Kiapp (BFC, Super.)

T1 sequence (P08684 whole entry): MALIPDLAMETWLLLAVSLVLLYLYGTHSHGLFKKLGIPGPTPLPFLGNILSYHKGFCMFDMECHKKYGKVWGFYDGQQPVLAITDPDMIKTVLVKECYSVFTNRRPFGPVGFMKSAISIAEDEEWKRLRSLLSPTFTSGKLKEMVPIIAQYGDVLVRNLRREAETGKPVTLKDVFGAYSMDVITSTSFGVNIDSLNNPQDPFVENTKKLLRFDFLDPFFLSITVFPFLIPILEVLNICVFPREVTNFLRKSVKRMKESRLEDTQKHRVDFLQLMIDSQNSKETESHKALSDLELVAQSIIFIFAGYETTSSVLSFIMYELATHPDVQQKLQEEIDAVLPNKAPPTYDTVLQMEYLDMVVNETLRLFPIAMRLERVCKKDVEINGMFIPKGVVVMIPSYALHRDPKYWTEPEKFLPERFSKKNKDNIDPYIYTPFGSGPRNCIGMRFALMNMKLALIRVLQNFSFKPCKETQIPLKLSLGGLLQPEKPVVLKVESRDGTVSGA

Row | Ki (CYP3A4 [1]; [4]) | Ki (CYP3A4 [1]; [5]) | IC50 (CYP3A4 [2]) | IC50 (CYP3A4 [3]) | SMILES
1 | 131 nM | 7.7 nM | 30.2 nM | 26.8 nM | CCCCCNC(=O)c1ccccc1S(=O)(=O)Nc1cccnc1 [Example 61, N-pentyl-2-[(pyridin-3-ylamino)sulfonyl]benzamide]
2 | > 1000 nM | 83.3 nM | 211 nM | 184 nM | O=C(c1ccccc1S(=O)(=O)Nc1cccnc1)N1CCN(c2ccccn2)CC1 [Example 62, N-pyridin-3-yl-2-[(4-pyridin-2-ylpiperazin-1-yl)carbonyl]benzenesulfonamide]
3 | 190 nM | 12.8 nM | 31.8 nM | 30.5 nM | O=C(NCC1CCCC1)c1ccccc1S(=O)(=O)Nc1cccnc1 [Example 64, N-(cyclopentylmethyl)-2-[(pyridin-3-ylamino)sulfonyl]benzamide]
4 | > 1000 nM | 210 nM | 302 nM | 146 nM | O=C(NCCc1ccccn1)c1ccccc1S(=O)(=O)Nc1cccnc1 [Example 66, 2-[(pyridin-3-ylamino)sulfonyl]-N-(2-pyridin-2-ylethyl)benzamide]
5 | 844 nM | 62 nM | 247 nM | 110 nM | O=C(c1ccccc1S(=O)(=O)Nc1cccnc1)N1CCCCC1 [Example 67, 2-(piperidin-1-ylcarbonyl)-N-pyridin-3-ylbenzenesulfonamide]
6 | > 1000 nM | – | 179 nM | 105 nM | O=C(NCCCc1ccccn1)c1ccccc1S(=O)(=O)Nc1cccnc1 [Example 69, 2-[(pyridin-3-ylamino)sulfonyl]-N-(3-pyridin-2-ylpropyl)benzamide]
7 | 124 nM | 10.7 nM | < 3 nM | 38 nM | CN(Cc1ccccc1F)C(=O)c1ccccc1S(=O)(=O)Nc1cccnc1 [Example 73, N-(2-fluorobenzyl)-N-methyl-2-[(pyridin-3-ylamino)sulfonyl]benzamide]

Continued, compound first:

Row | SMILES | Ki (CYP3A4 [1]; [4]) | Ki (CYP3A4 [1]; [5]) | IC50 (CYP3A4 [2]) | IC50 (CYP3A4 [3])
8 | O=C(NC1Cc2ccccc2C1)c1ccccc1S(=O)(=O)Nc1cccnc1 [Example 58, N-(2,3-dihydro-1H-inden-2-yl)-2-[(pyridin-3-ylamino)sulfonyl]benzamide] | 150 nM | 9.1 nM | 25.3 nM | 26.5 nM
9 | CCCCOCCCNC(=O)c1ccccc1S(=O)(=O)Nc1cccnc1 [Example 59, N-(3-butoxypropyl)-2-[(pyridin-3-ylamino)sulfonyl]benzamide] | 838 nM | 57.4 nM | 117 nM | 109 nM
10 | COc1cccc(CCNC(=O)c2ccccc2S(=O)(=O)Nc2cccnc2)c1 [Example 60, N-[2-(3-methoxyphenyl)ethyl]-2-[(pyridin-3-ylamino)sulfonyl]benzamide] | 151 nM | – | 24 nM | 17 nM
11 | CCCCNC(=O)c1ccccc1S(=O)(=O)Nc1cccnc1 [Example 63, N-butyl-2-[(pyridin-3-ylamino)sulfonyl]benzamide] | 449 nM | 42.4 nM | 84.1 nM | 84.2 nM
12 | O=C(NC1CCC1)c1ccccc1S(=O)(=O)Nc1cccnc1 [Example 65, N-cyclobutyl-2-[(pyridin-3-ylamino)sulfonyl]benzamide] | 920 nM | – | 214 nM | 254 nM
13 | CN(CCc1ccccc1)C(=O)c1ccccc1S(=O)(=O)Nc1cccnc1 [Example 68, N-methyl-N-(2-phenylethyl)-2-[(pyridin-3-ylamino)sulfonyl]benzamide] | 116 nM | – | 36 nM | 17 nM
14 | O=C(NCc1cccc(OC(F)F)c1)c1ccccc1S(=O)(=O)Nc1cccnc1 [Example 71, N-[3-(difluoromethoxy)benzyl]-2-[(pyridin-3-ylamino)sulfonyl]benzamide] | 245 nM | 5.1 nM | < 3 nM | 29 nM
15 | CCOc1ccccc1CNC(=O)c1ccccc1S(=O)(=O)Nc1cccnc1 [Example 72, N-(2-ethoxybenzyl)-2-[(pyridin-3-ylamino)sulfonyl]benzamide] | 164 nM | 12.9 nM | < 3 nM | 27 nM
